Reference: patent US5725842A, “Method of administering amiloride” (priority 1996, dated 1998)
Counter-ions that a name gives are not always drawn.

Legend:
[1] = Timed release (dissolution) of respirable solid amiloride particles in Krebs-Ringer solution approximating plasma, assayed as bioactive amiloride; type: physicochemical; settings: amiloride hydrochloride particles ~1 μm; aqueous solution approximating ionic strength of plasma
Excerpt: (§1) Freshly excised human cystic fibrosis airway […] used to assay bioactive amiloride in solution. Freshly excised tissues is obtained from the Operating Room at The University of North Carolina Hospitals as previously described. R. Boucher, M. Stutts, M. Knowles, L. Cantley, and J. Gatzy, Na+ transport in cystic fibrosis respiratory epithelia. Abnormal basal rate and response to adenylate cyclase activation. J. Clin. Invest. 78, 1245-1252 (1986). The tissue preparation is mounted in a minature Ussing chamber that has 6 ml of solution bathing each (mucosal; basolateral) surface of the preparation. The solution is a Krebs-Ringer bicarbonate solution which approximates the ionic composition of plasma. This solution is warmed (37°) and circulated with a gas lift (95% oxygen, 5% CO2) system. Mixing time in this chamber has been previously measured by calibration with dyes (blue dextran) and is five seconds or less. The measurement of sodium transport rates is performed using a voltage clamp that is interfaced to the tissue preparation by pairs of potential sensing electrodes and current passing electrodes. The current required to null the transepithelial potential difference to zero is the short circuit current, which in human airway tissue is an accurate index of sodium transport rates. See R. Boucher et al., supra.

[2] = system: human cystic fibrosis airway epithilia; test: Inhibition of Na+ transport (short circuit current, ISC) by amiloride hydrochloride dry powder in minature Ussing chamber; type: cell-based
Excerpt: as §1, with “supra. […] This experiment was conducted as described above. […]” for “supra.”

[3] = liquid aerosol, cystic fibrosis; cited from earlier work
[4] = Size distribution of amiloride aerosol (Andersen impactor); type: physicochemical; settings: MDI with spacer, 60 Lpm
Experimental: In each test, the MDI aerosol was dispersed into the spacer via a 50 μl metering valve designed to deliver 1 mg amiloride per puff; however, the actual delivery was closer to 3 mg/puff as determined by spectrophotometric analysis of all amiloride collected as discussed below.
After each experiment, the apparatus was disassembled and each component washed individually with 50 ml of distilled water to remove amiloride and lactose particles.

[5] = in vivo, po; cited from earlier work
[6] = in vivo
[7] = system: airway epithelia; settings: applied to luminal membrane; cited from earlier work

Structure (SMILES)	timed release effect of respirable solid particles [1]	inhibition of ISC ([2]; about 1 μm, at about sixty minutes)	time to complete inhibition of ISC ([2]; particle size about 1 μm, Krebs-Ringer bicarbonate, 37°)	clinical benefit [3]	mass median diameter (mmd) [4]	effective concentration in the airway lumen [5]	maximum systemic dose [6] [mg daily]	inhibition of Na+ and water absorption [7]
N=C(N)NC(=O)c1nc(Cl)c(N)nc1N [amiloride hydrochloride]	dissolved slowly over time	Complete Inhibition	about sixty					
N=C(N)NC(=O)c1nc(Cl)c(N)nc1N [amiloride]				clinical benefit	about 6 um	cannot be achieved	20	inhibit
